Assay results from US9944602B2, “Piperidinone herbicides” (E. I. DU PONT DE NEMOURS AND COMPANY, priority 2014, dated 2018).

Legend:
Format in all cases: in vivo
[1] = system: blackgrass (Alopecurus myosuroides); test: Test C postemergence blackgrass; settings: Table C, scale 0 to 100
Description: (§1) Seeds of plant species selected from blackgrass (Alopecurus myosuroides), ryegrass, Italian (Italian ryegrass, Lolium multiflorum), wheat (winter wheat, Triticum aestivum), galium (catchweed bedstraw, Galium aparine), corn (Zea mays), crabgrass, large (large crabgrass, Digitaria sanguinalis), foxtail, giant (giant foxtail, Setaria faberii), johnsongrass (Sorghum halepense), lambsquarters (Chenopodium album), morningglory (Ipomoea coccinea), yellow (yellow nutsedge, Cyperus esculentus), pigweed (Amaranthus retroflexus), ragweed (common ragweed, Ambrosia elatior), soybean (Glycine max), barnyardgrass (Echinochloa crus-galli), oilseed rape (Brassica napus), waterhemp (common waterhemp, Amaranthus rudis), and velvetleaf (Abutilon theophrasti) were planted into a blend of loam soil and sand and treated preemergence with test chemicals formulated in a non-phytotoxic solvent mixture which included a surfactant. At the same time, plants selected from these crop and weed species and also chickweed (common chickweed, Stellaria media), kochia (Kochia scoparia), and oat, wild (wild oat, Avena fatua) were planted in pots containing Sunshine Redi-Earth® planting medium comprising spaghnum peat moss, vermiculite, starter nutrients and dolomitic limestone and treated with postemergence applications of test chemicals formulated in the same manner. Plants ranged in height from 2 to 18 cm (1- to 4-leaf stage) for postemergence treatments. Treated plants and controls were maintained in a greenhouse for 13 to 15 days, after which time all species were compared to controls and visually evaluated. Plant response ratings, summarized in Table C, are based on a scale of 0 to 100 where 0 is no effect and 100 is complete control. A dash (-) response means no test result.

[2] = system: wheat (winter wheat, Triticum aestivum); test: Test C postemergence wheat; settings: Table C, scale 0 to 100
Description: as §1

[3] = system: johnsongrass (Sorghum halepense); test: Test C postemergence johnsongrass; settings: Table C, scale 0 to 100
Description: as §1

[4] = system: yellow (yellow nutsedge, Cyperus esculentus); test: Test C postemergence yellow nutsedge; settings: Table C, scale 0 to 100
Description: as §1

[5] = system: pigweed (Amaranthus retroflexus); test: Test C postemergence pigweed; settings: Table C, scale 0 to 100
Description: as §1

[6] = system: ragweed (common ragweed, Ambrosia elatior); test: Test C postemergence ragweed; settings: Table C, scale 0 to 100
Description: as §1

[7] = system: barnyardgrass (Echinochloa crus-galli); test: Test C postemergence barnyardgrass; settings: Table C, scale 0 to 100
Description: as §1

[8] = system: velvetleaf (Abutilon theophrasti); test: Test C postemergence velvetleaf; settings: Table C, scale 0 to 100
Description: as §1

[9] = system: ryegrass, Italian (Italian ryegrass, Lolium multiflorum); test: Test C preemergence ryegrass, Italian; settings: Table C, scale 0 to 100
Description: as §1

[10] = system: wheat (winter wheat, Triticum aestivum); test: Test C preemergence wheat; settings: Table C, scale 0 to 100
Description: as §1

[11] = system: corn (Zea mays); test: Test C preemergence corn; settings: Table C, scale 0 to 100
Description: as §1

[12] = system: lambsquarters (Chenopodium album); test: Test C preemergence lambsquarters; settings: Table C, scale 0 to 100
Description: as §1

[13] = system: ragweed (common ragweed, Ambrosia elatior); test: Test C preemergence ragweed; settings: Table C, scale 0 to 100
Description: as §1

[14] = system: soybean (Glycine max); test: Test C preemergence soybean; settings: Table C, scale 0 to 100
Description: as §1

[15] = system: barnyardgrass (Echinochloa crus-galli); test: Test C preemergence barnyardgrass; settings: Table C, scale 0 to 100
Description: as §1

[16] = system: morningglory (Ipomoea spp.); test: Test A preemergence morningglory; settings: 0 to 100 scale, 0 no effect, 100 complete control
Description: (§2) Seeds of plant species selected from barnyardgrass (Echinochloa crus-galli), kochia (Kochia scoparia), ragweed (common ragweed, Ambrosia elatior), ryegrass, Italian (Italian ryegrass, Lolium multiflorum), crabgrass, large (large crabgrass, Digitaria sanguinalis), foxtail, giant (giant foxtail, Setaria faberii), morningglory (Ipomoea spp.), pigweed (Amaranthus retroflexus), velvetleaf (Abutilon theophrasti), wheat (Triticum aestivum), and corn (Zea mays) were planted into a blend of loam soil and sand and treated preemergence with a directed soil spray using test chemicals formulated in a non-phytotoxic solvent mixture which included a surfactant.
(§3) At the same time, plants selected from these crop and weed species and also blackgrass (Alopecurus myosuroides), and galium (catchweed bedstraw, Galium aparine) were planted in pots containing the same blend of loam soil and sand and treated with postemergence applications of test chemicals formulated in the same manner. Plants ranged in height from 2 to 10 cm and were in the one- to two-leaf stage for the postemergence treatment. Treated plants and untreated controls were maintained in a greenhouse for approximately 10 d, after which time all treated plants were compared to untreated controls and visually evaluated for injury. Plant response ratings, summarized in Table A, are based on a 0 to 100 scale where 0 is no effect and 100 is complete control. A dash (-) response means no test result.

[17] = system: wheat (Triticum aestivum); test: Test A preemergence wheat; settings: 0 to 100 scale, 0 no effect, 100 complete control
Description: as §2, §3

[18] = system: corn (Zea mays); test: Test A preemergence corn; settings: 0 to 100 scale; for Corn plant response rating: 125 g ai/ha, 0 no effect, 100 complete control; for Plant response rating, Corn: 500 g ai/ha, 0 is no effect, 100 is complete control
Description: as §2, §3

[19] = system: velvetleaf (Abutilon theophrasti); test: Test A postemergence velvetleaf; settings: 0 to 100 scale, 0 is no effect, 100 is complete control
Description: as §2, §3

## O=C1NCCC(c2cccc(C(F)(F)F)c2)C1C(=O)Nc1ccccc1Cl (racemic) [Compound 17]
[1]; 31 g ai/ha
  Plant response rating: 0
[1]; 62 g ai/ha
  Plant response rating: 0
[1]; 125 g ai/ha
  Plant response rating: 0
[1]; 250 g ai/ha
  Plant response rating: 0
[2]; 31 g ai/ha
  Plant response rating: 0
[2]; 62 g ai/ha
  Plant response rating: 0
[2]; 125 g ai/ha
  Plant response rating: 0
[2]; 250 g ai/ha
  Plant response rating: 0
[3]; 31 g ai/ha
  Plant response rating: 0
[3]; 62 g ai/ha
  Plant response rating: 0
[3]; 125 g ai/ha
  Plant response rating: 0
[3]; 250 g ai/ha
  Plant response rating: 0
[4]; 31 g ai/ha
  Plant response rating: 0
[4]; 62 g ai/ha
  Plant response rating: 0
[4]; 125 g ai/ha
  Plant response rating: 0
[4]; 250 g ai/ha
  Plant response rating: 0
[5]; 31 g ai/ha
  Plant response rating: 0
[5]; 62 g ai/ha
  Plant response rating: 0
[5]; 125 g ai/ha
  Plant response rating: 0
[5]; 250 g ai/ha
  Plant response rating: 5
[6]; 31 g ai/ha
  Plant response rating: 0
[6]; 62 g ai/ha
  Plant response rating: 0
[6]; 125 g ai/ha
  Plant response rating: 0
[6]; 250 g ai/ha
  Plant response rating: 0
[7]; 31 g ai/ha
  Plant response rating: 0
[7]; 62 g ai/ha
  Plant response rating: 0
[7]; 125 g ai/ha
  Plant response rating: 5
[7]; 250 g ai/ha
  Plant response rating: 50
[8]; 31 g ai/ha
  Plant response rating: 0
[8]; 62 g ai/ha
  Plant response rating: 0
[8]; 125 g ai/ha
  Plant response rating: 0
[8]; 250 g ai/ha
  Plant response rating: 0

## O=C1NCCC(c2cccc(C(F)(F)F)c2)C1C(=O)Nc1ccc(F)c(F)c1F (racemic) [Compound 28]
[9]; 31 g ai/ha
  Plant response rating: 0
[9]; 62 g ai/ha
  Plant response rating: 0
[9]; 125 g ai/ha
  Plant response rating: 0
[9]; 250 g ai/ha
  Plant response rating: 35
[10]; 31 g ai/ha
  Plant response rating: 0
[10]; 62 g ai/ha
  Plant response rating: 0
[10]; 125 g ai/ha
  Plant response rating: 0
[10]; 250 g ai/ha
  Plant response rating: 10
[11]; 31 g ai/ha
  Plant response rating: 0
[11]; 62 g ai/ha
  Plant response rating: 0
[11]; 125 g ai/ha
  Plant response rating: 30
[11]; 250 g ai/ha
  Plant response rating: 55
[12]; 31 g ai/ha
  Plant response rating: 5
[12]; 62 g ai/ha
  Plant response rating: 5
[12]; 125 g ai/ha
  Plant response rating: 5
[12]; 250 g ai/ha
  Plant response rating: 15
[13]; 31 g ai/ha
  Plant response rating: 0
[13]; 62 g ai/ha
  Plant response rating: 0
[13]; 125 g ai/ha
  Plant response rating: 0
[13]; 250 g ai/ha
  Plant response rating: 0
[14]; 31 g ai/ha
  Plant response rating: 0
[14]; 62 g ai/ha
  Plant response rating: 0
[14]; 125 g ai/ha
  Plant response rating: 0
[14]; 250 g ai/ha
  Plant response rating: 0
[15]; 31 g ai/ha
  Plant response rating: 60
[15]; 62 g ai/ha
  Plant response rating: 75
[15]; 125 g ai/ha
  Plant response rating: 90
[15]; 250 g ai/ha
  Plant response rating: 95

## O=C1NCCC(c2cccc(C(F)(F)F)c2)C1C(=O)Nc1ccccc1C(F)(F)F (stereo not shown) [Compound 10, 2-oxo-N-[2-(trifluoromethyl)phenyl)-4-[3-(trifluoromethyl)phenyl]-3-piperidinecarboxamide]
[16]; 125 g ai/ha
  Morningglory plant response rating: 0
[16]; 500 g ai/ha
  Morningglory plant response rating: 0
[17]; 125 g ai/ha
  Wheat plant response rating: 0
[17]; 500 g ai/ha
  Wheat plant response rating: 0
[18]
  Corn plant response rating: 0
  Plant response rating, Corn: 0
[19]; 125 g ai/ha
  Plant response rating, Velvetleaf: 0
[19]; 500 g ai/ha
  Plant response rating, Velvetleaf: 0

## O=C1NCCC(c2cccc(C(F)(F)F)c2)C1C(=O)Nc1cccc(F)c1F (stereo not shown) [Compound 9, N-(2,3-difluorophenyl)-2-oxo-4-[3-(trifluoromethyl)phenyl]-3-piperidinecarboxamide]
[16]; 125 g ai/ha
  Morningglory plant response rating: 0
[16]; 500 g ai/ha
  Morningglory plant response rating: 0
[17]; 125 g ai/ha
  Wheat plant response rating: 20
[17]; 500 g ai/ha
  Wheat plant response rating: 50
[18]
  Corn plant response rating: 20
  Plant response rating, Corn: 70
[19]; 125 g ai/ha
  Plant response rating, Velvetleaf: 0
[19]; 500 g ai/ha
  Plant response rating, Velvetleaf: 0
[9]; 31 g ai/ha
  Plant response rating: 30
[9]; 62 g ai/ha
  Plant response rating: 50
[9]; 125 g ai/ha
  Plant response rating: 30
[9]; 250 g ai/ha
  Plant response rating: 80
[10]; 31 g ai/ha
  Plant response rating: 0
[10]; 62 g ai/ha
  Plant response rating: 30
[10]; 125 g ai/ha
  Plant response rating: 55
[10]; 250 g ai/ha
  Plant response rating: 70
[11]; 31 g ai/ha
  Plant response rating: 0
[11]; 62 g ai/ha
  Plant response rating: 0
[11]; 125 g ai/ha
  Plant response rating: 75
[11]; 250 g ai/ha
  Plant response rating: 90
[12]; 31 g ai/ha
  Plant response rating: 0
[12]; 62 g ai/ha
  Plant response rating: 0
[12]; 125 g ai/ha
  Plant response rating: 0
[12]; 250 g ai/ha
  Plant response rating: 0
[13]; 31 g ai/ha
  Plant response rating: 0
[13]; 62 g ai/ha
  Plant response rating: 0
[13]; 125 g ai/ha
  Plant response rating: 10
[13]; 250 g ai/ha
  Plant response rating: 20
[14]; 31 g ai/ha
  Plant response rating: 0
[14]; 62 g ai/ha
  Plant response rating: 0
[14]; 125 g ai/ha
  Plant response rating: 0
[14]; 250 g ai/ha
  Plant response rating: 0
[15]; 31 g ai/ha
  Plant response rating: 75
[15]; 62 g ai/ha
  Plant response rating: 90
[15]; 125 g ai/ha
  Plant response rating: 95
[15]; 250 g ai/ha
  Plant response rating: 95
[1]; 31 g ai/ha
  Plant response rating: 0
[1]; 62 g ai/ha
  Plant response rating: 0
[1]; 125 g ai/ha
  Plant response rating: 0
[1]; 250 g ai/ha
  Plant response rating: 0
[2]; 31 g ai/ha
  Plant response rating: 0
[2]; 62 g ai/ha
  Plant response rating: 0
[2]; 125 g ai/ha
  Plant response rating: 0
[2]; 250 g ai/ha
  Plant response rating: 0
[3]; 31 g ai/ha
  Plant response rating: 0
[3]; 62 g ai/ha
  Plant response rating: 0
[3]; 125 g ai/ha
  Plant response rating: 0
[3]; 250 g ai/ha
  Plant response rating: 5
[4]; 31 g ai/ha
  Plant response rating: 0
[4]; 62 g ai/ha
  Plant response rating: 0
[4]; 125 g ai/ha
  Plant response rating: 0
[4]; 250 g ai/ha
  Plant response rating: 0
[5]; 31 g ai/ha
  Plant response rating: 0
[5]; 62 g ai/ha
  Plant response rating: 0
[5]; 125 g ai/ha
  Plant response rating: 5
[5]; 250 g ai/ha
  Plant response rating: 5
[6]; 31 g ai/ha
  Plant response rating: 0
[6]; 62 g ai/ha
  Plant response rating: 0
[6]; 125 g ai/ha
  Plant response rating: 0
[6]; 250 g ai/ha
  Plant response rating: 5
[7]; 31 g ai/ha
  Plant response rating: 0
[7]; 62 g ai/ha
  Plant response rating: 5
[7]; 125 g ai/ha
  Plant response rating: 60
[7]; 250 g ai/ha
  Plant response rating: 85
[8]; 31 g ai/ha
  Plant response rating: 0
[8]; 62 g ai/ha
  Plant response rating: 0
[8]; 125 g ai/ha
  Plant response rating: 0
[8]; 250 g ai/ha
  Plant response rating: 0
